Measurements: ChEMBL document CHEMBL6121019, “Design, synthesis and biological evaluation of bisnoralcohol derivatives as novel IRF4 inhibitors for the treatment of multiple myeloma” (Eur J Med Chem, 2025)
Active and inactive are the calls of the source. The rule behind the calls is not given here.

Experiments:
[1] = test system: NCI-H929; assay: Effect on IRF4 expression in human NCI-H929 cells with siRNA mediated IRF4 knockdown by Western blot analysis; format: functional, cell-based
[2] = test system: NCI-H929; assay: Antiproliferative activity against human NCI-H929 cells with siRNA mediated IRF4#1 knockdown at 0.125 to 1 uM measured upto 5 days by MTS assay; format: functional, cell-based; settings: dose 0.125-1 µM, time <= 5.0 day
[3] = test system: NCI-H929; assay: Induction of cell cycle arrest in human NCI-H929 cells assessed as inhibition of CDC2 protein expression at 0.1 to 1 uM; format: functional, cell-based; settings: dose 0.1-1 µM
[4] = test system: NCI-H929; assay: Antitumor activity against human NCI-H929 cells xenografted in Balb/C nude mouse model assessed as increase in gammaH2AX expression at 25 mg/kg by Western blot analysis; format: functional, organism-based
[5] = test system: NCI-H929; assay: Antitumor activity against human NCI-H929 cells xenografted in Balb/C nude mouse model assessed as inhibition of ERK phosphorylation level at 25 mg/kg by Western blot analysis; format: functional, organism-based
[6] = Cmax in ICR mouse plasma at 10 mg/kg, po; format: ADME, organism-based
[7] = biological target: T1, Interferon regulatory factor 4 (Homo sapiens, UniProt Q15306); assay: Inhibition of IRF4 (unknown origin) incubated for 1 hr by fluorescence polarization assay
T1 sequence (Q15306 whole entry): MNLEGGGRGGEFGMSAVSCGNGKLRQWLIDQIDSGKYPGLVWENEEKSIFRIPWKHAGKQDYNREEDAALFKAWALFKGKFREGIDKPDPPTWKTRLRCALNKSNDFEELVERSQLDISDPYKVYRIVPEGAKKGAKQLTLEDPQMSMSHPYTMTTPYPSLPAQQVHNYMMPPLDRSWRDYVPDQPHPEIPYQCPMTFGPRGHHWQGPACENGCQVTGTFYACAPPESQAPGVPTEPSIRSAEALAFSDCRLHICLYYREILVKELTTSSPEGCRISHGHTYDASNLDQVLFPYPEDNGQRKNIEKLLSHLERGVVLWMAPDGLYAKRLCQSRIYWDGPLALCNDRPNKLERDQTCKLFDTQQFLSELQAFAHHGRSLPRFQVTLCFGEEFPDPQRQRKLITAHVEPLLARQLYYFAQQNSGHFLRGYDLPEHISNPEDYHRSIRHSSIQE

[8] = test system: NCI-H929; assay: Antitumor activity against human NCI-H929 cells xenografted in Balb/C nude mouse model assessed as inhibition of […] expression at 25 mg/kg by Western blot analysis; format: functional, organism-based
[9] = test system: NCI-H929; assay: Induction of cell cycle arrest in human NCI-H929 cells assessed as accumulation of cells at G1 phase at 0..5 uM measured after 24 hrs by flow cytometry analysis (reference value: 54.12%); format: functional
[10] = test system: NCI-H929; assay: Induction of cell cycle arrest in human NCI-H929 cells assessed as accumulation of cells at S phase at 0.25 uM measured after 24 hrs by flow cytometry analysis (reference value: 32.14%); format: functional
[11] = AUC (0 to t) in ICR mouse plasma at 1.0 mg/kg, iv; format: ADME, organism-based
[12] = test system: NCI-H929; assay: Downregulation of HK2 expression in human NCI-H929 cells measured after 24 hrs by qRT-PCR analysis; format: functional, cell-based; settings: dose 0.125-1 µM
[13] = test system: MM.1R; assay: Induction of cell cycle arrest in human MM1.R cells assessed as inhibition of cyclin D1 protein expression at 0.1 to 1 uM; format: functional, cell-based; settings: dose 0.1-1 µM
[14] = biological target: T2, Interferon regulatory factor 4 (Homo sapiens) (UniProt Q15306); assay: Induction of thermal stabilization of IRF4 in human NCI-H929 cells at 42 to 42.3 degree C by […] method; format: cell-based
T2 sequence (whole entry): T1 sequence (Q15306 whole entry)

[15] = AUC (0 to infinity) in ICR mouse plasma at 10 mg/kg, po; format: ADME, organism-based
[16] = Clearance in ICR mouse plasma at 1.0 mg/kg, iv; format: ADME, organism-based
[17] = biological target: T3, Interferon regulatory factor 3 (Homo sapiens) (UniProt Q14653); assay: Induction of thermal stabilization of IRF3 in human NCI-H929 cells at 42 to 42.3 degree C by […] method; format: cell-based
T3 sequence (whole entry): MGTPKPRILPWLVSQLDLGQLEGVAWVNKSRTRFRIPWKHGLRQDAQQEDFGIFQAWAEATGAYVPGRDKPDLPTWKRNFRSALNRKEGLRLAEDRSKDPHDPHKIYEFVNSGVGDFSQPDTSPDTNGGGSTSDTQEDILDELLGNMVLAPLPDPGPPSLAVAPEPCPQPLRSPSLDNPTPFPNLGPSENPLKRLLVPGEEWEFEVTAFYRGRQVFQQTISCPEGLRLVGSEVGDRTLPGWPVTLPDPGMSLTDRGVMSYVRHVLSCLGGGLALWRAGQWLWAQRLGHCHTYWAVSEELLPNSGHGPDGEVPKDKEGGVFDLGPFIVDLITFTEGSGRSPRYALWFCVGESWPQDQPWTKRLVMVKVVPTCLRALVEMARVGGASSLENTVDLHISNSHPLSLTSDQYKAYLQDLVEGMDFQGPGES

[18] = Terminal elimination half life in ICR mouse plasma at 10 mg/kg, po; format: ADME, organism-based; settings: read-out: beta t1/2 (converted)
[19] = test system: MM.1R; assay: Antiproliferative activity against human MM1.R cells with siRNA mediated IRF4 knockdown measured upto 5 days by MTS assay; format: functional, cell-based; settings: time <= 5.0 day
[20] = test system: NCI-H929; assay: Inhibition of ERK phosphorylation level in human NCI-H929 cells at 0.1 to 1 uM by Western blot analysis; format: functional, cell-based; settings: dose 0.1-1 µM
[21] = test system: MM.1R; assay: Effect on IRF4 expression in human MM1.R cells by Western blot analysis; format: functional, cell-based
[22] = test system: NCI-H929; assay: Induction of cell cycle arrest in human NCI-H929 cells assessed as accumulation of cells at S phase at 0.5 uM measured after 24 hrs by flow cytometry analysis (reference value: 32.14%); format: functional
[23] = test system: NCI-H929; assay: Induction of cell cycle arrest in human NCI-H929 cells assessed as accumulation of cells at G1 phase measured after 24 hrs by flow cytometry analysis; format: functional, cell-based; settings: dose 0.125-0.5 µM
[24] = test system: NCI-H929; assay: Induction of cell cycle arrest in human NCI-H929 cells assessed as inhibition of cyclin B1 protein expression at 0.1 to 1 uM; format: functional, cell-based; settings: dose 0.1-1 µM
[25] = test system: MM.1R; assay: Antiproliferative activity against human MM1.R cells assessed as inhibition of 3D clone forming ability measured after 2 to 3 weeks; format: functional, cell-based; settings: dose 0.125-1 µM, time 2-3 weeks
[26] = test system: NCI-H929; assay: Downregulation of Blimp1 expression in human NCI-H929 cells measured after 24 hrs by qRT-PCR analysis; format: functional, cell-based; settings: dose 0.125-1 µM
[27] = biological target: T1, Interferon regulatory factor 4; assay: Binding affinity to IRF4 (unknown origin) assessed as dissociation constant by SPR analysis
[28] = test system: NCI-H929; assay: Downregulation of E2F5 expression in human NCI-H929 cells measured after 24 hrs by qRT-PCR analysis; format: functional, cell-based; settings: dose 0.125-1 µM
[29] = test system: MM.1R; assay: Downregulation of Blimp1 expression in human MM1.R cells measured after 24 hrs by qRT-PCR analysis; format: functional, cell-based; settings: dose 0.125-1 µM
[30] = test system: NCI-H929; assay: Inhibition of AKT phosphorylation level in human NCI-H929 cells at 0.1 to 1 uM by Western blot analysis; format: functional, cell-based; settings: dose 0.1-1 µM
[31] = test system: NCI-H929; assay: Antitumor activity against human NCI-H929 cells xenografted in Balb/C nude mouse model assessed as inhibition of tumor volume measured after 34 days; format: functional; settings: dose 12.5-25 mg/kg, time 34.0 day

With COc1ccc(NC(=O)[C@@H](C)[C@H]2CC[C@H]3[C@@H]4C(=O)C=C5C(C)(C)C(=O)C(C#N)=C[C@]5(C)[C@H]4CC[C@]23C)cc1 the Activity [1] was “Active”, the Activity [2] was “Active” and the Activity [3] was “Active”. The Activity [4] was “Active”, the Activity [5] was “Active” and the Cmax [6] was 82 ng/mL. The IC50 [7] was 2.63 µM, the Activity [8] was “Active” and the Activity [9] was 64.61%. For the same compound, the Activity [10] was 25.49%, the AUC(0-t) [11] was 81 ng·h/mL and the Activity [12] was “Active”. For the same compound, the Activity [13] was “Active”, the Activity [14] was “Active” and the AUC(0-inf) [15] was 463 ng·h/mL. For the same compound, the clearance [16] was 197 mL/min/kg, the Activity [17] was “inactive” and the half-life [18] was 6.71 h. For the same compound, the Activity [19] was “Active”, the inhibition [20] was “Active” and the Activity [21] was “Active”. The Activity [22] was 20.54%, the Activity [23] was “Dose-dependent-effect” and the Activity [24] was “Active”. The Activity [25] was “Dose-dependent-effect”, the Activity [26] was “Active” and the Kd [27] was 1.28 µM. For the same compound, the Activity [28] was “Active”, the Activity [29] was “Active” and the inhibition [30] was “Active”. For the same compound, the Activity [31] was “Active; More Effective Than Lenalidomide”.
